From PubChem BioAssay AID330 (DTP/NCI, 2004) come the findings set out here.

Several values for one entry are separate records, joined by “and”; a condition that tells them apart may be missing. Equal entries are not always repeated. Toxic doses and inconclusive results are not listed.

The experiment concerns P388 leukemia ip, CD2F1 mice, survival T/C. Briefly: NCI In Vivo Anticancer Drug Screen. Data for tumor model P388 Leukemia (intraperitoneal) in CD2F1 (CDF1) mice. The following applies: endpoint: median survival time, higher = longer survival. The essentials:
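Mice carrying the transplanted tumor received test compound or vehicle. Survival was recorded in each group, and the value is the treated-group measurement divided by that of the vehicle-treated control group.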

Where [1] appears, read: dose: 25.0 mg/kg/injection, schedule: Q01DX005 (ip), vehicle: saline.
Where [2] appears, read: dose: 50.0 mg/kg/injection, schedule: Q01DX005 (ip), vehicle: saline.
Where [3] appears, read: dose: 100.0 mg/kg/injection, schedule: Q01DX005 (ip), vehicle: saline.
Where [4] appears, read: dose: 50.0 mg/kg/injection, schedule: Q01DX005 (ip), vehicle: Klucel (hydroxypropylcellulose) (HPC).
The mark [5] stands for this setting: dose: 100.0 mg/kg/injection, schedule: Q01DX005 (ip), vehicle: Klucel (hydroxypropylcellulose) (HPC).
Where [6] appears, read: dose: 200.0 mg/kg/injection, schedule: Q01DX005 (ip), vehicle: Klucel (hydroxypropylcellulose) (HPC).
The mark [7] stands for this setting: dose: 50.0 mg/kg/injection, schedule: Q01DX009 (ip), vehicle: suspension in saline.
The mark [8] stands for this setting: dose: 100.0 mg/kg/injection, schedule: Q01DX009 (ip), vehicle: suspension in saline.
The mark [9] stands for this setting: dose: 200.0 mg/kg/injection, schedule: Q01DX009 (ip), vehicle: suspension in saline.

As for `N#CCCC[n+]1cc2ccccc2c2ccccc21`, the T/C by setting is: under setting [1], 100 % of control; under setting [2], 101 % of control and 109 % of control; under setting [3], 105 % of control and 112 % of control.

On to `Cc1ccc(S(=O)(=O)OCCOCCOCCOCCOCCOCCOCCOCCOCCOCCOCCOCCOCCOCCOS(=O)(=O)c2ccc(C)cc2)cc1`, for which the T/C is 101 % of control (dose: 37.5 mg/kg/injection, schedule: Q01DX001 (ip), vehicle: saline with Tween-80); 104 % of control (dose: 75.0 mg/kg/injection, schedule: Q01DX001 (ip), vehicle: saline with Tween-80); 102 % of control (dose: 150.0 mg/kg/injection, schedule: Q01DX001 (ip), vehicle: saline with Tween-80).

Turning to `CN1CCC(c2ccccc2)C(OC(=O)c2ccccc2)C1` (stereo not drawn), the T/C under setting [1] is 110 % of control, the T/C under setting [2] was 111 % of control and the T/C under setting [3] was 100 % of control.

With `O=C(Cc1cccc2c(=O)cc(-c3ccccc3)oc12)OCCO`, the T/C was 100 % of control (dose: 25.0 mg/kg/injection, schedule: Q01DX005 (ip), vehicle: Klucel (hydroxypropylcellulose) (HPC)); 103 % of control and 91 % of control under setting [4]; 100 % of control and 110 % of control under setting [5]; 120 % of control under setting [6].

For the molecule `CC1CN1c1cc(O)c(N2CC2C)cc1O` (stereo not drawn), the T/C reads like this: (dose: 0.29 mg/kg/injection, schedule: Q01DX009 (ip), vehicle: saline with Tween-80) 100 % of control; (dose: 0.44 mg/kg/injection, schedule: Q01DX009 (ip), vehicle: saline with Tween-80) 118 % of control; (dose: 0.63 mg/kg/injection, schedule: Q04DX003 (ip), vehicle: saline with Tween-80) 109 % of control; (dose: 0.66 mg/kg/injection, schedule: Q01DX009 (ip), vehicle: saline with Tween-80) 122 % of control; (dose: 2.5 mg/kg/injection, schedule: Q04DX003 (ip), vehicle: saline with Tween-80) 150 % of control; (dose: 4.4 mg/kg/injection, schedule: Q04DX003 (ip), vehicle: saline with Tween-80) 228 % of control. Besides, the T/C is, setting by setting: (dose: 5.0 mg/kg/injection, schedule: Q04DX003 (ip), vehicle: saline with Tween-80) 159 % of control; (dose: 6.6 mg/kg/injection, schedule: Q04DX003 (ip), vehicle: saline with Tween-80) 238 % of control.

In the case of `C=C1C(=O)O[C@H]2CC(C)C3C[C@@H](O)OC(O)[C@]3(C)C[C@@H]12` (stereo partly drawn), the T/C was 101 % of control (dose: 2.38 mg/kg/injection, schedule: Q01DX005 (ip), vehicle: Klucel (hydroxypropylcellulose) (HPC)); 111 % of control (dose: 4.75 mg/kg/injection, schedule: Q01DX005 (ip), vehicle: Klucel (hydroxypropylcellulose) (HPC)); 102 % of control (dose: 9.5 mg/kg/injection, schedule: Q01DX005 (ip), vehicle: Klucel (hydroxypropylcellulose) (HPC)).

Take `NS(=O)(=O)c1cc([N+](=O)[O-])sc1SSc1sc([N+](=O)[O-])cc1S(N)(=O)=O`: the T/C is 99 % of control (dose: 6.25 mg/kg/injection, schedule: Q01DX001 (ip), vehicle: saline with Tween-80); 104 % of control (dose: 12.5 mg/kg/injection, schedule: Q01DX001 (ip), vehicle: saline with Tween-80); 100 % of control (dose: 25.0 mg/kg/injection, schedule: Q01DX001 (ip), vehicle: saline with Tween-80).

For the molecule `CCc1nc(-c2ccccc2)nc2c1nc(-c1ccc(C)cc1)n2Nc1ccccc1`, the T/C is, setting by setting: under setting [4], 88 % of control; under setting [5], 90 % of control; under setting [6], 89 % of control.

`CC(C)C1CCC2(C)CCC3(C)CCC12O3` (stereo not drawn): the T/C was 108 % of control (dose: 12.0 mg/kg/injection, schedule: Q01DX009 (ip), vehicle: Klucel (hydroxypropylcellulose) (HPC)); 98 % of control (dose: 24.0 mg/kg/injection, schedule: Q01DX009 (ip), vehicle: Klucel (hydroxypropylcellulose) (HPC)); 108 % of control (dose: 48.0 mg/kg/injection, schedule: Q01DX009 (ip), vehicle: Klucel (hydroxypropylcellulose) (HPC)); 108 % of control (dose: 96.0 mg/kg/injection, schedule: Q01DX009 (ip), vehicle: Klucel (hydroxypropylcellulose) (HPC)).

Take `COC(=O)c1ccccc1OC(C)=O`: the T/C (dose: 25.0 mg/kg/injection, schedule: Q01DX009 (ip), vehicle: suspension in saline) is 99 % of control; the T/C under setting [7] was 99 % of control; the T/C under setting [8] was 96 % of control; the T/C under setting [9] was 100 % of control.

With `CC(=O)/C=C1/NC=CN(C(=O)c2ccccc2)C1c1ccccc1` (stereo not drawn), the T/C by setting is: (dose: 60.0 mg/kg/injection, schedule: Q01DX005 (ip), vehicle: Klucel (hydroxypropylcellulose) (HPC)) 94 % of control; (dose: 120.0 mg/kg/injection, schedule: Q01DX005 (ip), vehicle: Klucel (hydroxypropylcellulose) (HPC)) 92 % of control; (dose: 240.0 mg/kg/injection, schedule: Q01DX005 (ip), vehicle: Klucel (hydroxypropylcellulose) (HPC)) 87 % of control.

As for `CN1CCC2(C)CC1Cc1ccc(O)cc12` (stereo not drawn), the T/C (dose: 3.12 mg/kg/injection, schedule: Q01DX005 (ip), vehicle: saline) is 96 % of control; the T/C (dose: 6.25 mg/kg/injection, schedule: Q01DX005 (ip), vehicle: saline) is 104 % of control; the T/C (dose: 12.5 mg/kg/injection, schedule: Q01DX005 (ip), vehicle: saline) is 105 % of control; the T/C under setting [1] was 96 % of control.

Consider `Oc1c(Cl)c(Cl)c(O)c(Cl)c1Cl`, for which the T/C by setting is: (dose: 6.25 mg/kg/injection, schedule: Q04DX003 (ip), vehicle: Klucel (hydroxypropylcellulose) (HPC)) 98 % of control; (dose: 12.5 mg/kg/injection, schedule: Q04DX003 (ip), vehicle: Klucel (hydroxypropylcellulose) (HPC)) 99 % of control; (dose: 25.0 mg/kg/injection, schedule: Q04DX003 (ip), vehicle: Klucel (hydroxypropylcellulose) (HPC)) 98 % of control.

Turning to `Cc1ccc(N2C(=O)CSC2=S)cc1C`, the T/C reads like this: under setting [7], 90 % of control; under setting [8], 90 % of control; under setting [9], 103 % of control.

As for `C[N+]1(Cc2ccc(C(N)=O)cc2)CCC(CCC2CC[N+](C)(Cc3ccc(C(N)=O)cc3)CC2)CC1` (stereo not drawn), the T/C is 93 % of control (dose: 0.78 mg/kg/injection, schedule: Q01DX005 (ip), vehicle: saline with Tween-80); 101 % of control (dose: 1.56 mg/kg/injection, schedule: Q01DX005 (ip), vehicle: saline with Tween-80); 90 % of control (dose: 3.13 mg/kg/injection, schedule: Q01DX005 (ip), vehicle: saline with Tween-80).

For the molecule `CCCCOc1ccc(C(=O)N/N=C(\C)[C@]2(O)Cc3c(O)c4c(c(O)c3[C@@H](OC3CC(N)C(O)C(C)O3)C2)C(=O)c2c(OC)cccc2C4=O)cc1` (stereo partly drawn), the T/C (dose: 0.12 mg/kg/injection, schedule: Q01DX009 (ip), vehicle: water) was 115 % of control; the T/C (dose: 0.5 mg/kg/injection, schedule: Q01DX009 (ip), vehicle: water) was 150 % of control and 151 % of control; the T/C (dose: 1.0 mg/kg/injection, schedule: Q01DX009 (ip), vehicle: water) was 152 % of control and 160 % of control; the T/C (dose: 2.0 mg/kg/injection, schedule: Q01DX009 (ip), vehicle: water) is 160 % of control and 179 % of control; the T/C (dose: 5.0 mg/kg/injection, schedule: Q01DX001 (ip), vehicle: water) was 153 % of control; the T/C (dose: 20.0 mg/kg/injection, schedule: Q01DX001 (ip), vehicle: water) was 106 % of control.

Regarding `Cc1c(-c2ccccc2)ccnc1/C=N/NS(=O)(=O)c1ccccc1`, the T/C is, setting by setting: (dose: 50.0 mg/kg/injection, schedule: Q01DX009 (ip), vehicle: other) 103 % of control; (dose: 100.0 mg/kg/injection, schedule: Q01DX009 (ip), vehicle: other) 97 % of control; (dose: 200.0 mg/kg/injection, schedule: Q01DX009 (ip), vehicle: other) 96 % of control.
